In brackets after ≈: the same amount, converted by molar mass.
Experiments:
HCMV wild-type = experiment: HCMV yield assay; type: cell-based, human cytomegalovirus; settings: human foreskin fibroblasts, reduction of virus yield by 50%; for IC50: Human betaherpesvirus 5, Fibroblast, read-out: IC50 (ug/ml) HCMV
Experimental: Yield assay. Monolayer cultures of human foreskin fibroblasts are infected with HCMV wild-type, typically at a multiplicity of infection equal to 0.2, in the presence of inhibitor compound (varying concentrations). At three days post-infection, total virus produced in these cultures (i.e. virus yield) is assessed by harvesting and titering the virus in 12-well plates of cultured human foreskin fibroblasts (done in the absence of inhibitor). Plaques are quantified at 2 weeks post-infection. An inhibitor of HCMV is identified by the reduction in titer of virus yield in the presence, compared to the titer in the absence of compound. In this assay, the relative anti-HCMV activity of an inhibitor is typically determined by calculating the IC50 or IC90 value, that is, the amount of compound required to reduce the virus yield by 50% or 90%, respectively. Table I describes IC50 data for compounds tested against HCMV.

HSV-1 = experiment: HSV Antiviral (ELISA) Assay; type: cell-based, herpes simplex virus type 1; settings: HSV-1, about 24 hours post-infection; for IC50: Human alphaherpesvirus 1, Vero cells, read-out: IC50 (ug/ml) HSV
Experimental: Vero cells (ATCC #CCL-81) are plated on 96-well tissue culture plates at 3.5×10^4 cells per 100 μl tissue culture DMEM (Dulbecco's modified Eagle media) supplemented with 2% fetal bovine serum (FBS) in each well. After overnight incubation @37° C. (in 5% CO2) and 30 minutes prior to infection with HSV-1 (multiplicity of infection equal to 0.006), cells are either untreated, or treated with test compound (multiple concentrations) or reference standard drug control. After approximately 24 hours post-infection incubation @37° C. (in 5% CO2), cells are fixed for ELISA assay. The primary antibody is murine anti-HSV glycoprotein D monoclonal primary antibody and the secondary antibody is goat anti-mouse IgG linked to β-galactosidase. Thus the extent of viral replication is determined by assessing β-galactosidase activity by quantifying the generation of the 4-methyl umbelliferone fluorescent cleavage product after addition of the methyl umbelliferyl-β-D-galactoside (Sigma #M1633) substrate on a microfluorimeter (365 nm for excitation and 450 nm for emission). Antiviral activity (IC50) of the test compound is determined by comparing the flourescence obtained in absence of compound to that obtained in the presence of compound.

VZV strain Ellen = experiment: VZV Antiviral (ELISA) Assay; type: cell-based, varicella-zoster virus; settings: for IC50 / inhibition at 10 µg/mL: Human alphaherpesvirus 3, 72 h; for IC50: read-out: IC50 (ug/ml) VZV; for inhibition at 10 µg/mL: read-out: % inhibition 10 ug/ml VZV, 10 ug/ml, human foreskin fibroblast cells, three days
Experimental: For the generation of stock VZV to be used in the assay, VZV strain Ellen (ATCC #VR-1367) is used to infect human foreskin fibroblast (HFF) cells at low multiplicity (less than 0.1) and incubated overnight at 37° C. in 5% CO2. After the overnight incubation, the mixture of uninfected and VZV-infected HFF infected cells are then harvested and added to each well of 96-well plates (3.5×10^4 cells in 100 1μl DMEM supplemented with 2% FBS) which contain test compound or the reference standard drug control (in 100 μl DMEM supplemented with 2% FBS per well). These cells are incubated for three days at 37° C. in 5% CO2, then fixed for ELISA assay. The primary antibody is murine anti-VZV glycoprotein II monoclonal antibody (Applied Biosystems, Inc. #13-145-100) and the secondary antibody is goat anti-mouse IgG linked to β-galactosidase. Thus the extent of viral replication is determined by assessing β-galactosidase activity by quantifying the generation of the 4-methyl umbelliferone fluorescent cleavage product after addition of the methyl umbelliferyl-β-D-galactoside (Sigma #M1633) substrate on a microfluorimeter (365 nm for excitation 450 nm for emission). Antiviral activity (IC50) of the test compound is determined by comparing the flourescence obtained in absence of compound to that obtained the presence of compound.

[1] = human foreskin fibroblast cells, three days

Molecule	IC50 (HCMV wild-type) [µg/mL]	IC50 (HSV-1) [µg/mL]	IC50 (VZV strain Ellen; [1]) [µg/mL]	inhibition at 10 µg/mL (VZV strain Ellen) [%]	IC50 (ug/ml) HCMV (HCMV wild-type) [µg/mL]	% inhibition 10 ug/ml VZV (VZV strain Ellen; 10 ug/ml, human foreskin fibroblast cells, three days) [%]	IC50 (ug/ml) VZV (VZV strain Ellen; [1]) [µg/mL]	IC50 (ug/ml) HSV (HSV-1; Vero cells) [µg/mL]
O=C(Nc1ccc(NC(=S)NCc2ccncc2)cc1)c1ccccc1F [Example 658, 2-Fluoro-N-[4-(3-pyridin-4-ylmethyl-thioureido)-phenyl]-benzamide]	> 0.5	10 (≈ 26.3 µM)	–	–	–	–	–	–
O=C(Nc1ccc(NC(=S)Nc2cccnc2)cc1)c1ccccc1F [Example 428, 2-Fluoro-N-[4-(3-pyridin-3-yl-thioureido)-phenyl]-benzamide]	> 10	> 10	> 10	0	–	–	–	–
CC(NC(=S)Nc1ccc(NC(=O)c2ccccc2F)cc1)c1cc2ccccc2cn1 (stereo not drawn) [Example 1097, 2-Fluoro-N-{4-[3-(1-isoquinolin-3-yl-ethyl)-thioureido]-phenyl}-benzamide]	4 (≈ 9 µM)	> 10	5.5 (≈ 12.4 µM)	–	–	–	–	–
CC(NC(=S)Nc1ccc(NC(=O)c2ccccc2F)cc1)c1nccs1 (stereo not drawn) [Example 1093, 2-Fluoro-N-{4-[3-(1-thiazol-2-yl-ethyl)-thioureido]-phenyl}-benzamide]	> 10	> 10	> 10	–	–	–	–	–
[1,2,3]Thiadiazole-4-carboxylic acid {4-[3-(5-chloro-pyridin-3-yl)-thioureido]-phenyl}-amide [Example 520]	–	–	–	–	0.32	38	>10	12
O=C(Nc1ccc(NC(=S)Nc2cncc(Br)c2)cc1)c1csnn1 [Example 525, [1,2,3]Thiadiazole-4-carboxylic acid {4-[3-(5-bromo-pyridin-3-yl)-thioureido]-phenyl}-amide]	0.018 (≈ 0.0413 µM)	2.5 (≈ 5.74 µM)	> 10	39	–	–	–	–
CC(NC(=S)Nc1ccc(NC(=O)c2ccccc2F)cc1)c1ccnc2ccccc12 (stereo not drawn) [Example 1096, 2-Fluoro-N-{4-[3-(1-quinolin-4-yl-ethyl)-thioureido]-phenyl}-benzamide]	5.7 (≈ 12.8 µM)	> 10	6.7 (≈ 15.1 µM)	–	–	–	–	–
O=C(Nc1ccc(NC(=S)Nc2ccncn2)cc1)c1ccco1 [Example 480, Furan-2-carboxylic acid [4-(3-pyrimidin-4-yl-thioureido)-phenyl]-amide]	7 (≈ 20.6 µM)	> 10	> 10	42	–	–	–	–
CC(C)(C)n1ccnc1NC(=S)Nc1ccc(NC(=O)c2ccco2)cc1 [Example 609, Furan-2-carboxylic acid {4-[3-(1-tert-butyl-1H-imidazol-2-yl)-thioureido]-phenyl}-amide]	1.5 (≈ 3.91 µM)	8 (≈ 20.9 µM)	> 10	–	–	–	–	–
O=C(Nc1ccc(NC(=S)Nc2ccccn2)cc1)c1ccccc1F [Example 443, 2-Fluoro-N-[4-(3-pyridin-2-yl-thioureido)-phenyl]-benzamide]	> 10	> 10	> 10	0	–	–	–	–
O=C(Nc1ccc(NC(=S)NC2CCc3ccccc32)cc1)c1csnn1 (stereo not drawn) [Example 649, [1,2,3]Thiadiazole-4-carboxylic acid [4-(3-indan-1-yl-thioureido)-phenyl]-amide]	0.02 (≈ 0.0506 µM)	> 10	0.5 (≈ 1.26 µM)	–	–	–	–	–
O=C(Nc1ccc(NC(=S)Nc2cncc(C(F)(F)F)c2)cc1)c1csnn1 [Example 629, [1,2,3]Thiadiazole-4-carboxylic acid {4-[3-(5-trifluoromethyl-pyridin-3-yl)-thioureido]-phenyl}-amide]	0.5 (≈ 1.18 µM)	> 10	> 10	–	–	–	–	–
O=C(Nc1ccc(NC(=S)NCc2cccnc2)cc1)c1ccccc1F [Example 632, 2-Fluoro-N-[4-(3-pyridin-3-ylmethyl-thioureido)-phenyl]-benzamide]	> 10	> 10	> 10	–	–	–	–	–
O=C(Nc1ccc(NC(=S)NCc2ccncc2)cc1)c1csnn1 [Example 660, [1,2,3]Thiadiazole-4-carboxylic acid [4-(3-pyridin-4-ylmethyl-thioureido)-phenyl]-amide]	> 0.5	10 (≈ 27 µM)	–	–	–	–	–	–
COc1ccccc1C(=O)Nc1ccc(NC(=S)NC(C)c2ccsc2)cc1 (stereo not drawn) [Example 1101, 2-Methoxy-N-{4-[3-(1-thiophen-3-yl-ethyl)-thioureido]-phenyl}-benzamide]	> 10	> 10	1 (≈ 2.43 µM)	–	–	–	–	–
O=C(Nc1ccc(NC(=S)Nc2ccncc2)cc1)c1ccco1 [Example 427, Furan-2-carboxylic acid [4-(3-pyridin-4-yl-thioureido)-phenyl]-amide]	0.8 (≈ 2.36 µM)	> 10	1.2 (≈ 3.55 µM)	21	–	–	–	–
CC(NC(=S)Nc1ccc(NC(=O)c2ccccc2F)cc1)c1cnc2ccccc2c1 (stereo not drawn) [Example 1100, 2-Fluoro-N-{4-[3-(1-quinolin-3-yl-ethyl)-thioureido]-phenyl}-benzamide]	4.6 (≈ 10.3 µM)	> 10	7.3 (≈ 16.4 µM)	–	–	–	–	–
O=C(Nc1ccc(NC(=S)Nc2ccc(Cl)nc2)cc1)c1csnn1 [Example 471, [1,2,3]Thiadiazole-4-carboxylic acid {4-[3-(6-chloro-pyridin-3-yl)-thioureido]-phenyl}-amide]	0.03 (≈ 0.0767 µM)	> 10	> 10	27	–	–	–	–
O=C(Nc1ccc(NC(=S)Nc2ccccn2)cc1)c1ccco1 [Example 426, Furan-2-carboxylic acid [4-(3-pyridin-2-yl-thioureido)-phenyl]-amide]	1.6 (≈ 4.73 µM)	> 10	1.8 (≈ 5.32 µM)	2	–	–	–	–
CC(NC(=S)Nc1ccc(NC(=O)c2ccccc2F)cc1)c1ccco1 (stereo not drawn) [Example 802, 2-Fluoro-N-{4-[3-(1-furan-2-yl-ethyl)-thioureido]-phenyl}-benzamide]	> 10	> 10	7.3 (≈ 19 µM)	–	–	–	–	–
O=C(Nc1ccc(NC(=S)Nc2cccnc2)cc1)c1ccco1 [Example 429, Furan-2-carboxylic acid [4-(3-pyridin-3-yl-thioureido)-phenyl]-amide]	1 (≈ 2.96 µM)	> 10	> 10	0	–	–	–	–
Cc1ccc(S(=O)(=O)n2c(C(C)NC(=S)Nc3ccc(NC(=O)c4ccccc4F)cc3)cc3ccccc32)cc1 (stereo not drawn) [Example 1094, 2-Fluoro-N-[4-(3-{1-[1-(toluene-4-sulfonyl)-1H-indol-2-yl]-ethyl}-thioureido)-phenyl]-benzamide]	> 10	> 10	> 7.5	–	–	–	–	–
CC(NC(=S)Nc1ccc(NC(=O)c2ccccc2F)cc1)c1cccn1C (stereo not drawn) [Example 804, 2-Fluoro-N-(4-{3-[1-(1-methyl-1H-pyrrol-2-yl)-ethyl]-thioureido}-phenyl)-benzamide]	> 10	> 10	5.7 (≈ 14.4 µM)	–	–	–	–	–
CC(NC(=S)Nc1ccc(NC(=O)c2ccccc2F)cc1)c1ccsc1 (stereo not drawn) [Example 805, 2-Fluoro-N-{4-[3-(1-thiophen-3-yl-ethyl)-thioureido]-phenyl}-benzamide]	8 (≈ 20 µM)	> 10	1.6 (≈ 4 µM)	–	–	–	–	–
CC(NC(=S)Nc1ccc(NC(=O)c2ccccc2F)cc1)c1ccc2ccccc2n1 (stereo not drawn) [Example 1095, 2-Fluoro-N-{4-[3-(1-quinolin-2-yl-ethyl)-thioureido]-phenyl}-benzamide]	2.4 (≈ 5.4 µM)	> 10	7.1 (≈ 16 µM)	–	–	–	–	–
O=C(Nc1ccc(NC(=S)NCc2ccncc2)cc1)c1ccco1 [Example 659, Furan-2-carboxylic acid [4-(3-pyridin-4-ylmethyl-thioureido)-phenyl]-amide]	> 0.5	> 10	–	–	–	–	–	–

Reference: US6380243B1, “Aminopyridine-containing thiourea inhibitors of herpes viruses” (American Home Products Corporation, priority 1998, dated 2002)
